Patent US4233303A, “Xanthine derivatives” (priority 1977, dated 1980)
“Also recorded” adds a separate entry of the source. Where two headings read alike, the source gives them in different places.

Experiments:
[1] = tested on: actively sensitized rat (anaphylactic bronchospasm); experiment: Active lung anaphylaxis in the rat (increase in intratracheal pressure after ovalbumin); assay type: in vivo, Sprague Dawley (printed "Spargue Dawley"); conditions: for Increase in intratracheal pressure (+ΔP): 1 min before ovalbumin, mean ± S.E.M.; for ED50: Rattus norvegicus, iv; for doses needed for protective effect / protective effect against anaphylactic bronchospasm (words, conclusion): actively sensitized rat; for protective effect against anaphylactic bronchospasm (words, conclusion): theophylline 0.010-2.5 mg/kg, disodiumcromoglicate 0.1-5.0 mg/kg; for concentrations showing inhibition of the anaphylactic bronchospasm / effect on the increase of the intratracheal pressure / maximum inhibition of the anaphylactic bronchospasm: 1 minute before ovalbumin
Protocol: The antianaphylactic effect was tested on actively sensitized laboratory animals.
The active sensitization of the animals was achieved by injecting ovalbumin, a protein. This administration makes the animals hypersensitive to subsequent challenge of ovalbumin with bronchoconstriction as a consequence. The antianaphylactic effect of the test compounds was tested in vivo by exposing the actively sensitized animals to ovalbumin and measuring the protective effect of test substance on the intratracheal pressure.
Rats, Spargue Dawley, 250 g, were sensibilized by 1.0 mg ovalbumin (Sigma) and 200 mg Al(OH)3 gel suspended in 1.0 ml saline. This suspension was administered subcutaneously at 2 sites (0.5 ml/site) on the abdominal side. This procedure was done with the animals lightly anesthetized by Mebumal. 18-26 days later the animals were used in the provocation experiments
The animal was anesthetized by i.p. injection of Mebumal, 50 mg/kg i.p. The trachea was cannulated and the animals was ventilated by a pump (Braun). The frequency of respiration was about 80 beats/min. The intratracheal pressure was measured by a Statham pressure transducer (P23AC). The normal pressure variations were 0- cm H2 O.
To inhibit spontaneous respiration there was need for Curare 0.8 mg/kg i.v. Alongside with the respiratory measurements the heart rate and arterial blood pressure was measured by a Statham pressure transducer connected with a. carotis. The blood pressure, pulse rate and intratracheal pressure were registered by means of a Grass polygraph.
Bronochoconstriction was induced by 5HT, 4-5 injections in v. jugularis of a standard dose. After that a single dose of ovalbumin, 5 mg, was administered. Test compound was administered 1 min before the challenging dose of ovalbumin. Because of desensitization towards the antigen (ovalbumin) this could only be administered once in each animal.
Calculation of anaphylactic bronchoconstriction
The maximum increase of the intratracheal pressure caused by ovalbumin was measured and this was expressed as the percentage increase of the intratracheal pressure. Comparisons were made between a group of control animals not treated with test compound and groups of animals treated with different doses of test compound.
They were initially dissolved in 0.8 ml NaOH (0.5 M) and 9.2 ml saline. This stock solution of compound, 10 mg/ml, was diluted further with saline if necessary. […] The compound was dissolved in saline.

[2] = tested on: basophil leucocytes and isolated lung tissue; conditions: cited from earlier work
[3] = read-out: ED 50 values (50% protection against the anaphylactic bronchospasm), i.v., extrapolated
[4] = read-out: Extrapolated intravenous dose for 50% protection (ED 50), i.v., Table VIII

SMILES | Increase in intratracheal pressure (+ΔP) ([1]; 0.010 mg/kg i.v.) [%] | Increase in intratracheal pressure (+ΔP) ([1]; 0.100 mg/kg i.v.) [%] | Increase in intratracheal pressure (+ΔP) ([1]; 0.500 mg/kg i.v.) [%] | ED50 [1, 3] [mg/kg] | ED50 [1, 4] [mg/kg] | doses needed for protective effect ([1]; i.v.) [mg/kg] | protective effect against anaphylactic bronchospasm (words, conclusion) [1] | concentrations showing inhibition of the anaphylactic bronchospasm ([1]; i.v.) [mg/kg] | effect on the increase of the intratracheal pressure ([1]; i.v.) | maximum inhibition of the anaphylactic bronchospasm ([1]; i.v.) | Increase in intratracheal pressure (+ΔP) ([1]; 0.250 mg/kg i.v.) [%] | Increase in intratracheal pressure (+ΔP) ([1]; 1.00 mg/kg i.v.) [%] | Increase in intratracheal pressure (+ΔP) ([1]; 0.025 mg/kg i.v.) [%] | Increase in intratracheal pressure (+ΔP) ([1]; 0.05 mg/kg i.v.) [%] | ED 50 values (50% protection against the anaphylactic bronchospasm) ([1]; i.v., extrapolated) [mg/kg] | Increase in intratracheal pressure (+ΔP) ([1]; 5.0 mg/kg i.v.) [%] | ED 50 result in words (dose-response shape) ([1]; i.v.) | inhibition of the anaphylactic release of histamine [2]
Cc1nc2c([nH]1)c(=O)n(C)c(=O)n2-c1ccccc1 [D 4026, 3,7-dihydro-1,8-dimethyl-3-phenyl-1H-purine-2,6-dione] | 33 ± 6 | 7 ± 2 | 9 ± 5 | < 0.1 | 0.016 | 0.01 to 1.0 | show protective effect | 0.01 to 0.10 | diminished the increase of the intratracheal pressure | about 87% | – | – | – | – | – | – | – | –
Cc1nc2c([nH]1)c(=O)n(C)c(=O)n2CC(C)O (stereo not drawn) [D 4086, 3,7-dihydro-1,8-dimethyl-3-(2-hydroxypropyl)-1H-purine-2,6-dione] | – | 26 ± 6 | 2 ± 1 | 0.1 to 0.27 | 0.12 | 0.01 to 1.0 | show protective effect | – | diminished the increase of the intratracheal pressure | – | 14 ± 3 | – | – | – | – | – | – | –
CCCn1c(=O)c2[nH]c(C)nc2n(CC(C)O)c1=O (stereo not drawn) [D 4122, 3,7-dihydro-3-(2-hydroxypropyl)-8-methyl-1-propyl-1H-purine-2,6-dione] | 34 ± 4 | 23 ± 5 | – | < 0.1 | 0.01 | 0.01 to 1.0 | show protective effect | 0.01 to 1.00 | diminished the increase of the intratracheal pressure | 79% | – | 18 ± 4 | – | – | – | – | – | –
Cc1nc2c([nH]1)c(=O)n(C)c(=O)n2C1CCCC1 [D 4136, 3-cyclopentyl-3,7-dihydro-1,8-dimethyl-1H-purine-2,6-dione] | – | 55 | – | – | 0.13 | 0.01 to 1.0 | show protective effect | – | diminished the increase of the intratracheal pressure | – | – | 27 ± 4 | 36 ± 4 | – | – | – | – | –
CCn1c(=O)c2[nH]c(C)nc2n(CC2CCCCC2)c1=O [D 4139, 3,7-dihydro-1-ethyl-8-methyl-3-cyclohexylmethyl-1H-purine-2,6-dione] | 74 ± 22 | 35 ± 9 | – | < 0.1 | 0.04 | 0.01 to 1.0 | show protective effect | 0.01 to 0.10 | diminished the increase of the intratracheal pressure | 68% | – | – | – | 50 ± 26 | 0.10 to 0.27 | – | – | –
O=C(O)c1cc(=O)c2c(OCC(O)COc3cccc4oc(C(=O)O)cc(=O)c34)cccc2o1 [disodiumcromoglicate, reference compound] | – | 46 ± 7 | – | – | – | – | – | – | – | – | – | 22 ± 8 | – | – | – | 46 ± 6 | bell shaped curves which made it impossible to calculate ED 50 values; also recorded: bell-shaped curve | –
Cn1c(=O)c2[nH]cnc2n(C)c1=O [theophylline] | – | – | – | – | – | – | – | – | – | – | – | – | – | – | – | – | – | capable of inhibiting the anaphylactic release of histamine
